Where a name gives a salt, the structure may show the parent alone. Read-outs that look alike come from different tables or passages of the source.
Assays:
[1] = test system: IL-23 (p19/p40); experiment: IL23-p19 ELISA, Dendritic, LPS (compound screening using DC cells); format: cell-based, Human; conditions: PBMC-derived DC cells, IFNγ primed, LPS 1 μg/ml, 18 hours, 10 pt, read-out: IL23-p19 ELISA, Dendritic, LPS, 10 pt, EC50
Description: Compound Screening Using DC Cells
Human PBMC cells (400 million) obtained from the vendor were transferred into a T-175 flask containing 15 ml RPMI media (10% FBS) and incubate for 2 hours at 37° C. After 2 hours, the media including floating cells was aspirated out carefully and 12 ml of fresh RPMI media (10% FBS) containing GMCSF (100 ng/ml) and IL4 (20 ng/ml) was added, and the flask was kept in a 37° C. incubator for 7 days.
After 3 days, fresh GMCSF (100 ng/ml) and IL4 (20 ng/ml) were added to the flask and the incubation continued. After 7 days, the fully differentiated cells were harvested by spinning down (1200 rpm/5 min) and aspirating the media. The cells were suspended in fresh RPMI media (10% FBS) containing 50 ng/ml IFNγ (1000 U/ml) and then plated (50K/well in 100 μl) onto a white clear bottom 96 well plate and left in a 37° C. incubator for 24 hours.
After 24 hours incubation, 100 μl of RPMI media was added containing 2× concentrated test compound per well to the above cell-culture media (final concentration becomes 1×) and the plates were pre-incubated for 1 hour at 37° C. before stimulating with LPS.
After 1 hour compound pre-incubation, 10 piper well of 20× concentrated LPS solution in RPMI media was added to give a final concentration of 1 μg/ml. The mixture was shaken and incubated the plates at 37° C. for an additional 18 hours.
155 μl of the supernatant was harvested from each well carefully (without the tip touching the bottom of the well) and to the remaining 50 μl/well of the cell culture plate was added 50 μl of Cell Titer Glo reagent. The mixture was incubated for 1-2 minutes on a shaker and the plate was read for luminescence intensity to determine the compound cytotoxicity. The cell culture supernatant collected above was used to carry out IL23 ELISA (65 μl -Supernatant) and IL10 ELISA (90 μl—Supernatant) as described below.
Human IL-23 (p19/p40) ELISA Protocol (e-Biosciences)
To 10.5 ml PBS add 50 μl of anti-IL23 (p19) was added capture antibody (2.5 μg/ml). The mixture was mixed well and 100 μl of the coating solution was added to each well of the 96 well white plates from Pierce. The wells were covered and incubated overnight at 4° C.
The anti-IL23 (p19)-antibody-coated plates were washed 2× using TBST (use plate washer) and blocked using 200 μl of 0.5% Casein for 1.5-2 hours at room temperature with shaking.
The plates were washed 2× using TBST and the supernatant was transferred (65 μl/well) to the above pre-blocked/IL23(p19)-antibody-coated 96 well plate, and incubated at room temperature for 1.5 hours with shaking.
The plates were washed 4× using TBST (plate washer) and 100 μl/well detection antibody solution prepared from 2 μl of biotin labeled anti-IL-12 (p40/p70) antibody in 11 ml 1% BSA/PBS solution (1-5000 dilution) was added. The plates were incubated for 1 hour with shaking at Room temperature.
Again, the plates were washed 4× with TBST and 100 μl of HRP labeled Streptavidin (R&D Systems) solution (10 μl/10 ml 1% BSA solution) was added, and the plates were incubated at room temperature for another 45 minutes with shaking.
After 45 minutes, the plates were washed with TBST 4× and 100 ul/well Super Signal ELISA Pico Chemiluminescent Substrate from Pierce (3.5 ml A+3.5 ml B+3.5 ml MQ water) was added. The plates were shaken for 1-2 minutes then read on a plate reader.

[2] = test system: IL-23p19; experiment: LPS induced IL23p19 in THP-1 cells (with IFNγ primed) assay; format: cell-based, Human; conditions: THP-1 cells, IFNγ primed, LPS 1 ug/mL, 18 hours, 10 pt, read-out: IL23-p19 ELISA, THP1-IFNy, LPS, 10 pt EC50
Method in brief: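 THP-1 cells primed ~18 h with IFNγ (50 ng/mL), pre-incubated 1 h with compound at 37 °C, then stimulated 18 h with LPS (1 ug/mL final). Supernatant IL-23p19 measured by sandwich ELISA with chemiluminescent read-out; EC50 from curve fitting. Toxicity checked on the remaining cells by Cell Titer Glo.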

Row | Structure (SMILES) | EC50 ([1]; Homo sapiens, 18 h) [nM] | EC50 ([2]; Homo sapiens, THP-1, 18 h) [nM] | EC50 ([1]; formate) [nM] | EC50 [1] [nM] | EC50 [2] [nM]
1 | COCCn1cc(NC(=O)c2ccc(-c3cnn(C(=O)OC4(C)CC4)c3)o2)c(-c2ccccn2)n1 [Compound I-21, 1-methylcyclopropyl 4-(5-((1-(2-methoxyethyl)-3-(pyridin-2-yl)-1H-pyrazol-4-yl)carbamoyl)furan-2-yl)-1H-pyrazole-1-carboxylate] | 458 | 201 | – | – | –
2 | COCCn1cc(NC(=O)c2ccc(-c3cnn(C(=O)OC(C)(C)COCc4ccc(OC)cc4)c3)o2)c(-c2ccccn2)n1 [Compound I-22, 1-((4-methoxybenzyl)oxy)-2-methylpropan-2-yl 4-(5-((1-(2-methoxyethyl)-3-(pyridin-2-yl)-1H-pyrazol-4-yl)carbamoyl)furan-2-yl)-1H-pyrazole-1-carboxylate] | 1550 | 204 | – | – | –
3 | O=C(Nc1cn(C2CCOCC2)nc1-c1ccccn1)c1ccc(-c2cn[nH]c2)o1 [Compound I-23, 5-(1H-pyrazol-4-yl)-N-(3-(pyridin-2-yl)-1-(tetrahydro-2H-pyran-4-yl)-1H-pyrazol-4-yl)furan-2-carboxamide] | 37.2 | 21.7 | – | – | –
4 | O=C(Nc1cn(C2COC2)nc1-c1ccccn1)c1ccc(-c2cn[nH]c2)o1 [Compound I-25, N-(1-(oxetan-3-yl)-3-(pyridin-2-yl)-1H-pyrazol-4-yl)-5-(1H-pyrazol-4-yl)furan-2-carboxamide] | 44.1 | 57.1 | – | – | –
5 | Cn1cc(-c2ccc(C(=O)Nc3cn(C4COC4)nc3-c3ccccn3)o2)cn1 [Compound I-26, 5-(1-methyl-1H-pyrazol-4-yl)-N-(1-(oxetan-3-yl)-3-(pyridin-2-yl)-1H-pyrazol-4-yl)furan-2-carboxamide] | 276 | 1320 | – | – | –
6 | CCO[C@H]1C[C@H](n2cc(NC(=O)c3ccc(-c4cn[nH]c4)o3)c(-c3ccccn3)n2)C1 [Compound I-27, N-(1-((1,3-trans)-3-ethoxycyclobutyl)-3-(pyridin-2-yl)-1H-pyrazol-4-yl)-5-(1H-pyrazol-4-yl)furan-2-carboxamide] | 15.8 | 159 | – | – | –
7 | CCO[C@H]1C[C@@H](n2cc(NC(=O)c3ccc(-c4cn[nH]c4)o3)c(-c3ccccn3)n2)C1 [Compound I-28, N-(1-((1,3-cis)-3-ethoxycyclobutyl)-3-(pyridin-2-yl)-1H-pyrazol-4-yl)-5-(1H-pyrazol-4-yl)furan-2-carboxamide] | 21.8 | 49.7 | – | – | –
8 | CCO[C@H]1C[C@@H](n2cc(NC(=O)c3ccc(-c4c[nH]nc4C)o3)c(-c3ccccn3)n2)C1 [Compound I-29, N-(1-((1,3-cis)-3-ethoxycyclobutyl)-3-(pyridin-2-yl)-1H-pyrazol-4-yl)-5-(3-methyl-1H-pyrazol-4-yl)furan-2-carboxamide] | 97.2 | 206 | – | – | –
9 | Cc1n[nH]cc1-c1ccc(C(=O)Nc2cn(C3COC3)nc2-c2ccccn2)o1 [Compound I-30, 5-(3-methyl-1H-pyrazol-4-yl)-N-(1-(oxetan-3-yl)-3-(pyridin-2-yl)-1H-pyrazol-4-yl)furan-2-carboxamide] | 58.9 | 38 | – | – | –
10 | CCO[C@H]1C[C@@H](n2cc(NC(=O)c3ccc(-c4cnn(C)c4)o3)c(-c3ccccn3)n2)C1 [Compound I-31, N-(1-((1,3-cis)-3-ethoxycyclobutyl)-3-(pyridin-2-yl)-1H-pyrazol-4-yl)-5-(1-methyl-1H-pyrazol-4-yl)furan-2-carboxamide] | 1250 | 6290 | – | – | –
11 | O=C(Nc1cn([C@H]2C[C@@H](O)C2)nc1-c1ccccn1)c1ccc(-c2cn[nH]c2)o1 [Compound I-32, N-(1-((1,3-cis)-3-hydroxycyclobutyl)-3-(pyridin-2-yl)-1H-pyrazol-4-yl)-5-(1H-pyrazol-4-yl)furan-2-carboxamide] | 83 | 28.8 | – | – | –
12 | CN(C)[C@H]1C[C@@H](n2cc(NC(=O)c3ccc(-c4cn[nH]c4)o3)c(-c3ccccn3)n2)C1 [Compound I-34, N-(1-((1s,3s)-3-(dimethylamino)cyclobutyl)-3-(pyridin-2-yl)-1H-pyrazol-4-yl)-5-(1H-pyrazol-4-yl)furan-2-carboxamide formate] | 14.4 | 13.8 | – | – | –
13 | CCO[C@H]1C[C@@H](n2cc(NC(=O)c3ccc(-c4cnn(COP(=O)(O)O)c4)o3)c(-c3ccccn3)n2)C1 [Compound I-35, (4-(5-((1-((1,3-cis)-3-ethoxycyclobutyl)-3-(pyridin-2-yl)-1H-pyrazol-4-yl)carbamoyl)furan-2-yl)-1H-pyrazol-1-yl)methyl phosphate bis-sodium salt] | 520 | 63.3 | – | – | –
14 | CCOCCn1cc(NC(=O)c2ccc(-c3cn[nH]c3)o2)c(-c2ccccn2)n1 [Compound I-37, N-(1-(2-ethoxyethyl)-3-(pyridin-2-yl)-1H-pyrazol-4-yl)-5-(1H-pyrazol-4-yl)furan-2-carboxamide formate] | – | 144 | 17.4 | – | –
15 | CCOCCn1cc(NC(=O)c2ccc(-c3cn[nH]c3)o2)c(-c2ccccn2)n1 [Compound I-38, N-(1-(2-ethoxyethyl)-3-(pyridin-2-yl)-1H-pyrazol-4-yl)-5-(1H-pyrazol-4-yl)furan-2-carboxamide] | – | – | – | 58.2 | 172
16 | CCOCCn1cc(NC(=O)c2ccc(-c3cnn(CC)c3)o2)c(-c2ccccn2)n1 [Compound I-39, N-(1-(2-ethoxyethyl)-3-(pyridin-2-yl)-1H-pyrazol-4-yl)-5-(1-ethyl-1H-pyrazol-4-yl)furan-2-carboxamide formate] | 4320 | 1950 | – | – | –
17 | CCOCCn1cc(NC(=O)c2ccc(-c3c[nH]nc3C(F)(F)F)o2)c(-c2ccccn2)n1 [Compound I-41, N-(1-(2-ethoxyethyl)-3-(pyridin-2-yl)-1H-pyrazol-4-yl)-5-(3-(trifluoromethyl)-1H-pyrazol-4-yl)furan-2-carboxamide formate] | 3940 | 2570 | – | – | –
18 | CCOCCn1cc(NC(=O)c2ccc(-c3cnn(C)c3)o2)c(-c2ccccn2)n1 [Compound I-45, N-(1-(2-ethoxyethyl)-3-(pyridin-2-yl)-1H-pyrazol-4-yl)-5-(1-methyl-1H-pyrazol-4-yl)furan-2-carboxamide formate] | 5450 | 1080 | – | – | –
19 | O=C(Nc1c[nH]nc1-c1ccccn1)c1ccc(-c2cn[nH]c2)o1 [Compound I-47, 5-(1H-pyrazol-4-yl)-N-(3-(pyridin-2-yl)-1H-pyrazol-4-yl)furan-2-carboxamide] | 327 | 392 | – | – | –
20 | CC1(Cn2cc(-c3ccc(C(=O)Nc4cn(CC5(C)COC5)nc4-c4ccccn4)o3)cn2)COC1 [Compound I-48, 5-(1-((3-methyloxetan-3-yl)methyl)-1H-pyrazol-4-yl)-N-(1-((3-methyloxetan-3-yl)methyl)-3-(pyridin-2-yl)-1H-pyrazol-4-yl)furan-2-carboxamide formate] | 7500 | 5520 | – | – | –

— patent US10208074B2, “Pyrazole compounds and method for making and using the compounds” (Rigel Pharmaceuticals, Inc., priority 2015, dated 2019)
